The test system of series [1] is Male SD rats. Put plainly: Hypnotic efficacy: loss of righting reflex (LORR) in rats. In kind it is in vivo. As for the experimental part: The sequential method was used to determine the ED50 (median effective dose) for the loss of righting reflex (LORR) by the compounds of the present disclosure in rats: Male SD rats, weighing 200-300 grams, were used. Each compound was dissolved in normal saline and administered via tail vein injection at an initial dose at a constant injection rate over 10 s (one rat per dose). […] This process was repeated, and the results were recorded in the AOT425 Statpm software until the software could calculate the ED50, at which point the experiment was terminated. The hypnotic efficacy of the compounds of the present disclosure was evaluated using ED50 with lower ED50 values indicating stronger efficacy.
Comparison of onset time and duration: Male SD rats, weighing 200-300 grams, were used. Each compound was dissolved in normal saline and administered via tail vein injection at a constant injection rate over 10 s, with 10 rats per group. […] The onset time and duration were recorded.
The onset time refers to the period from the completion of injection to when the rat is placed in a supine position, with the criterion for loss of righting reflex defined as the rat's inability to spontaneously revert to a prone position using its forelimbs and maintained for ≥10 s, which serves as an indicator of compound efficacy; the duration refers to the sustained period during which the rat remains in a state of losing righting reflex. The spontaneous recovery of the righting reflex in the rat is considered the cessation of the efficacy.

Series [2] concerns Male SD rats. Description: Fluctuations in blood pressure and heart rate after administration. In kind it is in vivo. On the procedure: Male SD rats, weighing 250-300 g, with 4 rats per group, were maintained under general anesthesia by isoflurane inhalation. Femoral artery cannulation was performed, and blood pressure and heart rate were monitored using a Powerlab data acquisition and analysis system. 30 min after the baseline values stabilized, the baseline mean arterial pressure (MAP0) and baseline heart rate (HR0) were measured. The rats were given a solution of each compound in normal saline via tail vein injection (the dose of each compound was the same as in Test Example 3, with rapid intravenous injection over 10 s). Blood pressure and heart rate were continuously recorded for 90 min. MAP^+ (the difference between the maximum mean arterial pressure (MAPmax) and MAP0), MAP^-(the difference between the minimum mean arterial pressure (MAPmin) and MAP0), and HR^- (the difference between the minimum heart rate (HRmin) and HR0) within 90 min were calculated. For calculation, the maximum increase rate of mean arterial pressure = MAP^+/MAP0 × 100%; the maximum decrease rate of mean arterial pressure = MAP^-/MAP0 × 100%; and the maximum decrease rate of heart rate = HR^-/HR0 × 100%.

The mark [3] stands for this setting: in words, compared with dexmedetomidine hydrochloride, rats.
Where [4] appears, read: loss of righting reflex, male SD rats, tail vein injection, dose twice the ED50, 10 rats per group.
Setting [5] is: isoflurane-anesthetized male SD rats, tail vein injection, dose as in Test Example 3.
Setting [6] is: isoflurane-anesthetized male SD rats, tail vein injection, dose as in Test Example 3, within 90 min.

Each structure is given as a SMILES string.

On to `CC(c1c[nH]cn1)c1cccc2c1COC2` (stereo not drawn) [Compound 5, 4-[1-(1,3-Dihydroisobenzofuran-4-yl)ethyl]-1H-imidazole], for which the ED50 in the series on Male SD rats [1] (Rattus norvegicus, loss of righting reflex, male SD rats, tail vein injection over 10 s, sequential method) came to 0.0625 mg/kg. Further, in the series with Male SD rats [1] (setting [3]), the Duration entry is “significantly shorter” and the hypnotic onset time result is reported as “comparable to or slightly longer”. In the series on Male SD rats [1] (setting [4]), this compound yielded a Duration of 531.10±559.16 S and an Onset time of 99.20±29.98 S. Moreover, the “induce sleep in rats” value in the series with Male SD rats [1] (time to induce sleep, rats, dose twice the ED50) was no more than 5 min. Also, in the series on Male SD rats [2] (setting [3]), the “maximum decrease rates of HR” value was “lower”, the “maximum increase rates of MAP” value is “lower” and the “recovery of HR” value was “faster”. In the series with Male SD rats [2] (setting [5]), the “HR decrease Duration” value came to 30 min and the “MAP increase Duration” value stood at 2 min. Moreover, in the series with Male SD rats [2] (setting [6]), the “HR decrease Maximum decrease rate” value is listed as 24.7±4.5 %, the “MAP decrease Maximum decrease rate” value amounted to 7.4±9.2% and the “MAP increase Maximum increase rate” value worked out at 19.9±6.3%. For the same compound, the “decreases in MAP” value with Male SD rats [2] (no significant decreases greater than the stated value, rats) is given as no more than 10%.

The ED50 is the dose at which the effect has come halfway, by size or by number of responders.

These data come from patent EP4729516A1, “S[…] DERIVATIVE, INTERMEDIATE, PREPARATION METHOD THEREFOR AND USE THEREOF” (Jiangsu NHWA Pharmaceutical Co., Ltd, priority 2023, dated 2024).
